Results on 7 compounds are retold here after ChEMBL document CHEMBL1201862, “PubChem BioAssay data set” (2004).

Test systems include OVCAR-8; SNB-75; HCT-15; T47D; HCT-116; MDA-N; KM12; IGROV-1; SW-620; RXF 393; ACHN; SF-268; MOLT-4; SNB-19; CAKI-1; SK-MEL-5; NCI-H23; UO-31; SK-MEL-28; LOX IMVI.
What all share (assay): DTP human tumour cell line panel, 48 h

A word on the GI50: it is the concentration at which growth is held to half of that of the control.

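Cells were grown in 96-well plates and exposed to each compound for 48 hours at five concentrations; endpoints were interpolated linearly between bracketing concentrations, or set to the highest concentration if not reached. The concentration for 50% growth inhibition is given as GI50.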 Calls of active or inactive are those of the source. Rule as the data show it: active = GI50 up to about 1.1 µM and inactive = higher. Bounds are passed on as bounds.

As to `CCCCn1cnc2c(SC)ncnc21`, the GI50 in the assay with OVCAR-8 was > 100 µM (inactive); in the assay with SNB-75 it was > 100 µM (inactive); in the assay with HCT-15, over 100 µM; in the assay on T47D, > 100 µM (inactive); in the assay on HCT-116, > 100 µM (inactive); with MDA-N, > 100 µM (inactive). In addition, the GI50 in the assay with KM12, with IGROV-1, in the assay on SW-620, in the assay with RXF 393, with ACHN and in the assay on SF-268 was > 100 µM (inactive) throughout. In addition, the GI50 with MOLT-4 was 28.4 µM (inactive); in the assay with SNB-19, > 100 µM (inactive); in the assay on CAKI-1, > 100 µM (inactive); in the assay on SK-MEL-5 it was > 100 µM (inactive); with NCI-H23, > 100 µM (inactive); in the assay on UO-31, > 100 µM (inactive). Also, the GI50 in the assay with SK-MEL-28 and in the assay on LOX IMVI was > 100 µM (inactive) in each case.
Take `CC(C)(C)OC(=O)NC(Cc1ccc(OC(C)(C)C)cc1)C(=O)N[C@H]1CCC[C@H]1C(=O)NC(Cc1ccccc1)C(=O)N1CCCC1C(N)=O` (stereo partly drawn): the GI50 in the assay on OVCAR-8 was > 100 µM (inactive); with SNB-75, > 100 µM (inactive); with HCT-15, over 100 µM; with T47D, > 100 µM (inactive); in the assay on HCT-116, > 100 µM (inactive); with MDA-N, > 100 µM (inactive). The GI50 with KM12, in the assay with IGROV-1, in the assay on SW-620, in the assay with RXF 393, in the assay with ACHN and with SF-268 was > 100 µM (inactive) throughout. Also, the GI50 with MOLT-4, with SNB-19, in the assay on CAKI-1, in the assay with SK-MEL-5, in the assay on NCI-H23 and with UO-31 was > 100 µM (inactive) throughout. The GI50 in the assay on SK-MEL-28 and with LOX IMVI was > 100 µM (inactive) throughout.
Regarding `Clc1ccc(/C=N/c2ccc3c(c2)Cc2ccccc2-3)c(Cl)c1`, the GI50 was > 100 µM (inactive) with OVCAR-8; > 100 µM (inactive) in the assay with SNB-75; 40.6 µM in the assay with HCT-15; > 100 µM (inactive) in the assay with T47D; 58.1 µM (inactive) in the assay with HCT-116; 53.2 µM (inactive) with MDA-N. Besides, the GI50 with KM12, with IGROV-1, in the assay on SW-620, in the assay with RXF 393, in the assay on ACHN and with SF-268 was > 100 µM (inactive) each time. Besides, the GI50 in the assay on MOLT-4, in the assay with SNB-19, in the assay with CAKI-1, in the assay with SK-MEL-5, in the assay with NCI-H23 and in the assay on UO-31 was > 100 µM (inactive) each time. Besides, the GI50 in the assay with SK-MEL-28 was > 100 µM (inactive); in the assay with LOX IMVI, 92.9 µM (inactive).
On to `Clc1ccccc1-c1nn2c(CCCCCCCCc3nnc4sc(-c5ccccc5Cl)nn34)nnc2s1`, for which the GI50 was > 100 µM (inactive) in the assay with OVCAR-8; > 100 µM (inactive) in the assay with SNB-75; over 100 µM in the assay with HCT-15; > 100 µM (inactive) with T47D; > 100 µM (inactive) with HCT-116; > 100 µM (inactive) in the assay with MDA-N. The GI50 in the assay with KM12 was 87.3 µM (inactive); with SW-620, > 100 µM (inactive); in the assay with RXF 393 it was > 100 µM (inactive); in the assay on ACHN, > 100 µM (inactive); in the assay with SF-268 it was > 100 µM (inactive); with MOLT-4, 16.5 µM (inactive). The GI50 was > 100 µM (inactive) with SNB-19; > 100 µM (inactive) in the assay with CAKI-1; 63.1 µM (inactive) with SK-MEL-5; > 100 µM (inactive) with NCI-H23; > 100 µM (inactive) in the assay with UO-31; > 100 µM (inactive) in the assay on SK-MEL-28. Moreover, the GI50 in the assay with LOX IMVI was 63.1 µM (inactive).
Turning to `CC(C)(CO)CNc1cc(Cl)nc(N)n1`, the GI50 in the assay with OVCAR-8 is > 100 µM (inactive); in the assay with SNB-75, > 100 µM (inactive); in the assay on HCT-15, over 100 µM; in the assay on T47D it was 43.2 µM (inactive); in the assay on HCT-116, > 100 µM (inactive); in the assay on MDA-N, > 100 µM (inactive). For the same compound, the GI50 in the assay on KM12, in the assay with IGROV-1, in the assay on SW-620, in the assay with RXF 393, with ACHN and in the assay on SF-268 was > 100 µM (inactive) throughout. Further, the GI50 in the assay on MOLT-4, in the assay with CAKI-1, in the assay on SK-MEL-5, in the assay on NCI-H23, in the assay on UO-31 and in the assay with SK-MEL-28 was > 100 µM (inactive) each time. In addition, the GI50 with LOX IMVI is > 100 µM (inactive).
Consider `Cc1cc2c([N+](=O)[O-])cc3c(c2o1)C(=O)C=CC3=O`, for which the GI50 in the assay on OVCAR-8 is 19.6 µM (inactive); in the assay with SNB-75, 25.6 µM (inactive); with HCT-15, 15 µM; in the assay on T47D, 3.12 µM (inactive); in the assay on HCT-116 it was 5.51 µM (inactive); in the assay on MDA-N it was 14.5 µM (inactive). The GI50 is 16.6 µM (inactive) with KM12; 7.41 µM (inactive) with IGROV-1; 2.43 µM (inactive) in the assay with SW-620; 1.89 µM (inactive) with RXF 393; 1.89 µM (inactive) in the assay with ACHN; 12.4 µM (inactive) in the assay with SF-268. For the same compound, the concentration for 50% growth inhibition (GI50) with MOLT-4 is 0.415 µM (active); in the assay on SNB-19 it was 15.5 µM (inactive); in the assay on CAKI-1, 1.06 µM (active); in the assay with SK-MEL-5, 14.2 µM (inactive); with NCI-H23 it was 17.7 µM (inactive); with UO-31, 1.67 µM (inactive). Besides, the GI50 with SK-MEL-28 was 8.85 µM (inactive); in the assay on LOX IMVI, 6.76 µM (inactive).
As to `C/C(=C\c1ccccc1)C(=O)NCc1ccc(C(=O)NCCc2c[nH]c3ccccc23)cc1`, the GI50 in the assay with OVCAR-8 is > 100 µM (inactive); in the assay with SNB-75, > 100 µM (inactive); in the assay on HCT-15 it was over 100 µM; in the assay on T47D, > 100 µM (inactive); in the assay with HCT-116, 58.3 µM (inactive); with MDA-N, > 100 µM (inactive). Also, the GI50 in the assay on KM12 was 33.2 µM (inactive); with IGROV-1, > 100 µM (inactive); in the assay with SW-620, > 100 µM (inactive); in the assay on RXF 393, > 100 µM (inactive); in the assay on ACHN, 38.1 µM (inactive); in the assay with SF-268 it was > 100 µM (inactive). The GI50 was 60.7 µM (inactive) with MOLT-4; > 100 µM (inactive) in the assay on SNB-19; > 100 µM (inactive) in the assay with CAKI-1; 50.5 µM (inactive) with SK-MEL-5; 80.4 µM (inactive) in the assay with NCI-H23; 51.6 µM (inactive) in the assay on UO-31. Also, the GI50 in the assay with SK-MEL-28 is > 100 µM (inactive); with LOX IMVI, 61.1 µM (inactive).
